Source: ChEMBL document CHEMBL1130271, “Synthesis and pharmacological evaluation of N-(2,5-disubstituted phenyl)-N'-(3-substituted phenyl)-N'-methylguanidines as N-methyl-D-aspartate receptor ion-channel blockers” (J Med Chem, 1997)
Structures can show the parent of a compound that is named as a salt.

target: not listed separately; experiment: Binding assay for the sigma receptor sites is performed by utilizing [3H]N,N-di-o-tolylguanidine ([3H]DTG) and guinea pig brain membrane suspensions

IC50 [nM]	SMILES
82	CCc1cccc(NC(=N)N(C)c2cccc(CC)c2)c1
2540	CCc1cccc(N(C)C(N)=Nc2cccc3ccccc23)c1 [APTIGANEL HYDROCHLORIDE]

target: Glutamate NMDA receptor; experiment: In vitro radioligand binding assay for the N-methyl-D-aspartate glutamate receptor is performed using [3H]MK-801 and rat brain membrane suspensions

Ki [nM]	SMILES
350	CCc1cccc(NC(=N)Nc2ccccc2CC)c1
140	CCc1cccc(NC(=N)Nc2ccc(Cl)cc2Cl)c1
230	CCc1cccc(NC(=N)Nc2ccccc2C(C)C)c1
156	CCc1cccc(NC(=N)Nc2cccc(Cl)c2Cl)c1
204	CCc1cccc(NC(=N)Nc2ccc(Cl)c(Cl)c2)c1
738	CCc1cccc(NC(=N)Nc2ccc(Cl)cc2)c1
133	CCc1cccc(NC(=N)Nc2c(Cl)cccc2Cl)c1
51	CCc1cccc(NC(=N)Nc2cccc(Br)c2)c1
249	CCc1cccc(NC(=N)Nc2ccccc2Cl)c1
68	CCc1cccc(NC(=N)Nc2cc(Cl)ccc2Cl)c1
112	CCc1cccc(NC(=N)Nc2cccc(Cl)c2)c1
386	CCc1cccc(N(C)C(=N)Nc2ccccc2Cl)c1
768	CCc1cccc(NC(=N)Nc2ccccc2C)c1

Second part, the compound before the results:

SMILES	Ki [nM]
CCc1cccc(N(C)C(=N)Nc2cccc(Br)c2)c1	81
CCc1cccc(N(C)C(=N)Nc2ccccc2C(C)C)c1	564
CCc1cccc(N(C)C(=N)Nc2ccc(Cl)cc2)c1	3340
CCc1cccc(N(C)C(=N)Nc2cc(CC)cc(CC)c2F)c1	97
CCc1cccc(NC(=N)N(C)c2cc(CC)ccc2Cl)c1	65
CCc1cccc(N(C)C(=N)N(C)c2cc(Br)ccc2Br)c1	27
CCc1cccc(NC(=N)Nc2cc(C)cc(CC)c2Cl)c1	77
CCc1cccc(N(C)C(=N)N(C)c2cc(Cl)ccc2Cl)c1	72
CCc1cccc(N(C)C(=N)Nc2ccccc2I)c1	101
CCc1cccc(NC(=N)Nc2cc(Cl)cc(Cl)c2)c1	115
CCc1cccc(NC(=N)Nc2cccc(CC)c2)c1	129
CCc1cccc(NC(=N)Nc2cc(SC)cc(CC)c2Cl)c1	11.8
CCc1cccc(N(C)C(=N)Nc2cc(Cl)ccc2Cl)c1	65
CCc1cccc(N(C)C(=N)N(C)c2cc(CC)ccc2Cl)c1	111
CCc1cccc(N(C)C(=N)Nc2cc(C)cc(CC)c2Cl)c1	78
CCc1cccc(N(C)C(=N)Nc2ccc(Cl)c(Cl)c2)c1	1280
CCc1cccc(N(C)C(=N)Nc2cccc(SC)c2)c1	6.4
CCc1cccc(NC(=N)Nc2cc(CC)cc(CC)c2F)c1	50
CCc1cccc(NC(=N)Nc2cc(CC)cc(CC)c2)c1	129
CCc1cccc(NC(=N)Nc2cc(CC)cc(CC)c2Br)c1	29
CCc1cccc(N(C)C(=N)Nc2cccc(Cl)c2)c1	497
CCc1cccc(N(C)C(=N)Nc2ccccc2Br)c1	265
CCc1cccc(N(C)C(=N)Nc2cccc(Cl)c2Cl)c1	116
CCc1cccc(N(C)C(N)=Nc2cccc3ccccc23)c1 [APTIGANEL HYDROCHLORIDE]	29
